Read-outs that look alike come from different tables or passages of the source.
Tests used:
[1] = system: NMDA receptor; assay: Calcium flux (45Ca++ accumulation) in primary neuronal cortical cell cultures; format: cell-based, rat; conditions: L-689,560 50 μM with NMDA 500 μM; 10 minutes room temperature; FIG. 3
Method: A functional ion-flux assay used to measure the effect of compounds identified by the present invention relates to the ability to enhance or inhibit calcium flux through the NMDA receptor. This test is performed on suitable cell cultures that have membrane-bound NMDA receptors and glycine transporters. Such cells include neuronal cells generally, including those of the central nervous system, including brain, and cell lines derived therefrom, and any other cell that has been induced or transfected to express NMDA receptors. Calcium used in such a test is commonly the ^45 Ca isotope, although other calcium measuring techniques can be used as well, such as calcium-associated fluorescence and the like. However the calcium is monitored, calcium flux is enhanced or inhibited as a result of the discrete addition of a compound of the present invention. An advantage of this system is that it allows one to monitor the net effect on NMDA receptor function of a compound that interacts with the glycine site on the NMDA receptor and the glycine transporter.
This example illustrates a protocol for measuring calcium flux in primary neuronal cells, which is an indication of NMDA receptor activation. […]
The tissue was chopped with a scalpel and then triturated with a glass pipet that had been fire polished. […] Cells were counted in a suitable counting chamber. […]

[2] = molecular target: glycine site on the NMDA receptor; assay: [3H]MK-801 binding test operated to identify antagonists of the NMDA-glycine site; conditions: rat cortex/hippocampus membranes; glutamate 10 μM, glycine 200 nM, 2.5 nM [3H]MK-801, 1 hour room temperature; FIG. 2A; read-out: concentration of antagonist resulting in about a 50% effect on [3H]MK-801 binding
Method: Sterner and Calligaro, Soc. Neurosci.
The membrane preparation included the following steps:
1. Sacrifice and decapitate four rats; remove cortices and hippocampi.
3. Centrifuge tissue at 1000×g, 10 minutes. Save supernatant.
4. […] Discard the supernatant.
5. […] Stir the suspension on ice for one hour.
6. […] Leave on ice for 20 minutes.
The final volume of the assay was 200 μl.

[3] = molecular target: T1, GlyT-1c (Homo sapiens, UniProt P48067); assay: Inhibition of [3H]glycine uptake in QT-6 cells transiently transfected with GlyT-1c; format: cell-based; conditions: for selectivity GlyT-1c relative to GlyT-2: comparison of pIC50 at GlyT-1c and GlyT-2 in transfected QT-6 cells
T1 construct: expressed in transfected cells; host or cells: QT-6 quail fibroblast cells (ATCC CRL-1708), transient transfection
T1 sequence (P48067 1-706): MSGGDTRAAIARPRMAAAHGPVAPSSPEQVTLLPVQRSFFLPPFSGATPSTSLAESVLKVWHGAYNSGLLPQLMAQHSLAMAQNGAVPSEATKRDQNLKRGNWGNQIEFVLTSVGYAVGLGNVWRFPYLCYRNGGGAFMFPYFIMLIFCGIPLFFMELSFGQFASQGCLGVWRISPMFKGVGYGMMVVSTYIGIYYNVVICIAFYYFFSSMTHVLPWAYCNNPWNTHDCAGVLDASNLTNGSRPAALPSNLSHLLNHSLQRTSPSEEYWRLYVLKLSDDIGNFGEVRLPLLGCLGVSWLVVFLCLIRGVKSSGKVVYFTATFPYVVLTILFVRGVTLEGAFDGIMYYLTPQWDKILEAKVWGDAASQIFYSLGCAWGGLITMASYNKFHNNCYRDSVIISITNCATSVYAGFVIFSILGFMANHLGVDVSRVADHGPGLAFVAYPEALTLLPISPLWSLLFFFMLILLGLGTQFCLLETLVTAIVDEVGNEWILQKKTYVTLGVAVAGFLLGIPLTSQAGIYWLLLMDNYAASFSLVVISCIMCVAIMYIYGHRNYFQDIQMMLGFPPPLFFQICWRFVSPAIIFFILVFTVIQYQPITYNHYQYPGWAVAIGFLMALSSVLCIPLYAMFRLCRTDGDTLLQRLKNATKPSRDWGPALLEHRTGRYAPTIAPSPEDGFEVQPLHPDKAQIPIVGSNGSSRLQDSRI
Method: (§1) This example sets forth methods and materials used for growing and transfecting QT-6 cells.
The human GlyT-1c (hGlyT-1c) clone used contains the sequence of hGlyT-1c [SEQ ID NO:3] from nucleotide position 213 to 2336 cloned into the pRc/CMV vector (Invitrogen) as a Hind III-Xba I fragment as described in Kim et al., supra. The Hind III-Xba fragment of hGlyT-1c from this clone was then subcloned into the pRc/RSV vector. Transfection experiments were performed with GlyT-1c in both the pRc/RSV and pRc/CMV expression vectors.
(§2) The following four day procedure for the tranfections was used:
(§3) On day 1, QT-6 cells were plated at a density of 1×10^6 cells in 10 ml of complete QT-6 medium in 100 mm dishes.
(§4) On day 2, the medium was aspirated and the cells were washed with 10 ml of PBS followed by 10 ml of TBS. The TBS was aspirated, then 1 ml of the DEAE/DNA mix was added to the plate. The plate was swirled in the hood every 5 minutes. After 30 minutes, 8 ml of 80 μM chloroquine in QT-6 medium was added and the culture was incubated for 2.5 hours at 37° C. and 5% CO2. The medium was then aspirated and the cells were washed two times with complete QT-6 medium, then […] complete QT-6 medium was added and the cells were returned to the incubator.
(§5) On day 3, the cells were removed with trypsin/EDTA as described above, and plated into the wells of 96-well assay plates at approximately 2×10^5 cells/well.
(§6) On day 4, glycine transport was assayed as described in Example 2.
(§7) This example illustrates a method for the measurement of glycine uptake by transfected cultured cells.
(§8) Transient GlyT-transfected cells or control ("mock") cells grown in accordance with Example 1 were washed three times with HEPES buffered saline (HBS). The mock cells were treated precisely as the GlyT-transfected cells except that the transfection procedure omitted any cDNA. The cells were incubated 10 minutes at 37° C., after which a solution was added containing 50 nM [^3 H] glycine (17.5 Ci/mmol) and either (a) no potential competitor, (b) 10 mM nonradioactive glycine or (c) a concentration of a candidate drug. […] The cells were then incubated another 20 minutes at 37° C., after which the cells were aspirated and washed three times with ice-cold HBS. The cells were harvested, scintillant was added to the cells, the cells were shaken for 30 minutes, and the radioactivity in the cells was counted using a scintillation counter. Data were compared between the cells contacted or not contacted by a candidate agent, and between cells having GlyT-1 activity versus cells having GlyT-2 activity, depending on the assay being conducted.

[4] = molecular target: T2, GlyT-2 (Rattus norvegicus, UniProt P58295); assay: Inhibition of [3H]glycine uptake in QT-6 cells transiently transfected with GlyT-2; format: cell-based
T2 construct: expressed in transfected cells; host or cells: QT-6 quail fibroblast cells (ATCC CRL-1708), transient transfection
T2 sequence (P58295 1-799): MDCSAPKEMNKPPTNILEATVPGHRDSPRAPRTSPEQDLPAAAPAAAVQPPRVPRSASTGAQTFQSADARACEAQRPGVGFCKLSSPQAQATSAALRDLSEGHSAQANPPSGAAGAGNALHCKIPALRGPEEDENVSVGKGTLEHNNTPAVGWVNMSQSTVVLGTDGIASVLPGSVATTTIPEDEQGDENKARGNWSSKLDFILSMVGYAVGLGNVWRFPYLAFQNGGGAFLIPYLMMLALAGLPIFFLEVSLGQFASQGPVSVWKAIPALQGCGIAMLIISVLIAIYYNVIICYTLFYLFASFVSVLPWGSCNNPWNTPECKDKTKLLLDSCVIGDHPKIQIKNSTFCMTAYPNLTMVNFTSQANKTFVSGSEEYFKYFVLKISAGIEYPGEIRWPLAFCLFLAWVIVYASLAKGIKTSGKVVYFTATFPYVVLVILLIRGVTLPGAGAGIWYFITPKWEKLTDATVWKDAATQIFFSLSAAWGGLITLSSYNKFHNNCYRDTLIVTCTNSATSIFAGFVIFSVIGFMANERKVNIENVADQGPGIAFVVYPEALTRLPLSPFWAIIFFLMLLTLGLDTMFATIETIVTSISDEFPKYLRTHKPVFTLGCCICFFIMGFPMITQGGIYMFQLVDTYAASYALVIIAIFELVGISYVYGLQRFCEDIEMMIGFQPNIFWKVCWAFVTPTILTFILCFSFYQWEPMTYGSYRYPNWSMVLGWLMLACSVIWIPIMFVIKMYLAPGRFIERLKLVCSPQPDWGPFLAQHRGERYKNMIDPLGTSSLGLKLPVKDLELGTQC
Method: as §1, §2, §3, §4, §5, §6, §7, §8

[5] = molecular target: glycine site on the NMDA receptor; conditions: read-out: concentration of agonist resulting in about a 50% effect on [3H]MK-801 binding; rat cortex/hippocampus membranes; glutamate 10 μM, 2.5 nM [3H]MK-801, 1 hour room temperature; FIG. 2B
Method: In particular, compounds having agonist activity in this assay enhance MK-801 binding; conversely, compounds having antagonist activity inhibit MK-801 binding.
Preparation of membranes for the binding test required application of a series of standard methods. Unless otherwise specified, tissues and homogenates were kept on ice and centrifugations were conducted at 4° C. Homogenizations were conducted with an effort to minimize resulting rise in tissue/homogenate temperature. The membrane preparation included the following steps:
Homogenize tissue in twenty volumes of 0.32 M sucrose/5 mM Tris-Acetate (pH 7.4) with 20 strokes of a glass/teflon homogenizer.
Centrifuge tissue at 1000×g, 10 minutes. Save supernatant. Resuspend pellet in small volume of buffer and homogenize again. Centrifuge the homogenized pellet and combine the supernatant with the previous supernatant.
Centrifuge the combined supernatants at 40,000×g, for 30 minutes. Discard the supernatant. […]
The assay was started by the addition of 2.5 nM [^3 H]MK-801 (23.9 Ci/mmol), which binds to the ion channel associated with NMDA receptors. […] Bound radioactivity was separated from free by filtration, using a TOMTEC harvester. Antagonist activity was indicated by decreasing radioactivity associated with the NMDA receptor with increasing concentration of the tested ligand.

[6] = QT-6 cells transfected with GlyT-1c, 50 nM [3H]glycine, 20 min at 37° C, read-out: Effect Via GlyT-1c, pIC50 (converted)
[7] = QT-6 cells transfected with GlyT-2, 50 nM [3H]glycine, 20 min at 37° C, read-out: Effect Via GlyT-2, pIC50 (converted)

Row | SMILES | IC50 [3, 6] [µM] | selectivity GlyT-1c relative to GlyT-2 [3] | IC50 [3] [µM] | IC50 [4] [µM] | also measured
1 | O=C(Nc1ccccc1)N[C@@H]1C[C@@H](C(=O)O)Nc2cc(Cl)cc(Cl)c21 (relative stereo) [L-689,560] |  |  |  |  | blockade of NMDA-caused accumulation of 45Ca++ [1]: blocked; IC50 [2]: ~0.5 µM
2 | Clc1ccc(C(c2ccc(Cl)cc2)n2cc[n+](CC(OCc3ccc(Cl)cc3Cl)c3ccc(Cl)cc3Cl)c2)cc1 (stereo not shown) [ZA] | 0.912 | selective for GlyT-1c relative to GlyT-2 |  |  | IC50 [4, 7]: 3.09 µM
3 | CC(C)(C)c1ccc(C(O)CCCN2CCC(C(O)(c3ccccc3)c3ccccc3)CC2)cc1 (stereo not shown) [ZB] |  | selective for GlyT-1c relative to GlyT-2 | 4.27 | 17 | 
4 | CC(Cc1ccccc1)NCCC(c1ccccc1)c1ccccc1 (stereo not shown) [ZC] |  | selective for GlyT-1c relative to GlyT-2 | 6.46 | 14.1 | 
5 | CSc1ccc2c(c1)N(CCC1CCCCN1C)c1ccccc1S2 (stereo not shown) [ZD] | 9.55 |  |  |  | 
6 | CC(NCCC(c1ccccc1)c1ccccc1)c1ccccc1 (stereo not shown) [ZE] |  | selective for GlyT-1c relative to GlyT-2 | 12.9 | 20.9 | 
7 | CN1CCC(=C2c3ccccc3CCc3ccccc32)CC1 [ZF] | 21.4 | reverse selectivity |  |  | IC50 [4, 7]: 14.5 µM
8 | NCC(=O)O [glycine] |  |  |  |  | EC50 [5]: ~1 µM
